Measurements as given in publication PMC3920478, “Small molecule-mediated refolding and activation of myosin motor function” (eLife, 2014).
“Also recorded” adds a separate entry of the source.

Key:
Assay type in all cases: biochemical, Porcine
β-cardiac myosin [1] = target: T1, β-cardiac myosin (Sus scrofa, UniProt P79293); assay: Steady-state basal and actin-activated Mg2+-ATPase (NADH-coupled assay)
Protocol: Rabbit fast skeletal muscle heavy meromyosin (HMM) was prepared as described by [Margossian and Lowey (1982)]. Porcine β-cardiac myosin was prepared essentially as described by [Pant et al. (2009)] and [Jacques et al. (2008)] and further purified by gel filtration. S1 and HMM fragments were produced by proteolytic digestion of the full-length proteins with 0.05 mg/ml papain (10 min, 25°C) for S1 and with 0.1 mg/ml TLCK-treated α-chymotrypsin (15 min, 25°C) for HMM. Reactions were stopped with specific protease inhibitors for papain (10 µM E−64) and chymotrypsin (10 µM chymostatin, 1 mM benzamidine). Proteolytic fragments were further purified by actin-coprecipitation. Pellets were washed twice and myosin was extracted from the pellets using ATP containing buffer. Gel filtration was used to further increase purity of myosin S1 and HMM fragments. His-tagged motor domain constructs of Dd myosin-2, Dd myosin-1B, Dd myosin-1C, Dd myosin-1D, Dd myosin-1E, Dd myosin-5b fused to two Dd α-actinin repeats substituting the light-chain binding domains ([Anson et al., 1996]) were expressed in Dd AX3-ORF + cells and purified by Ni^2+-chelate affinity chromatography ([Manstein and Hunt, 1995]).
Basal and actin-activated Mg^2+-ATPase activities were measured using the NADH-coupled assay described previously ([Furch et al., 1998]) adapted for higher throughput screens for a temperature controlled plate reader (Multiscan FC, Thermo Scientific, Waltham, MA) at 25°C. […] Control measurements were carried out in the absence of drug, as well as in the presence of according concentrations of the non-binding (−)-enantiomer EMD 57439 to account for possible absorption effects. […] Data points are mean values from 3 to 5 independent experiments. Error bars indicate standard deviations.
Target sequence in this assay (P79293 1-810 limits assumed): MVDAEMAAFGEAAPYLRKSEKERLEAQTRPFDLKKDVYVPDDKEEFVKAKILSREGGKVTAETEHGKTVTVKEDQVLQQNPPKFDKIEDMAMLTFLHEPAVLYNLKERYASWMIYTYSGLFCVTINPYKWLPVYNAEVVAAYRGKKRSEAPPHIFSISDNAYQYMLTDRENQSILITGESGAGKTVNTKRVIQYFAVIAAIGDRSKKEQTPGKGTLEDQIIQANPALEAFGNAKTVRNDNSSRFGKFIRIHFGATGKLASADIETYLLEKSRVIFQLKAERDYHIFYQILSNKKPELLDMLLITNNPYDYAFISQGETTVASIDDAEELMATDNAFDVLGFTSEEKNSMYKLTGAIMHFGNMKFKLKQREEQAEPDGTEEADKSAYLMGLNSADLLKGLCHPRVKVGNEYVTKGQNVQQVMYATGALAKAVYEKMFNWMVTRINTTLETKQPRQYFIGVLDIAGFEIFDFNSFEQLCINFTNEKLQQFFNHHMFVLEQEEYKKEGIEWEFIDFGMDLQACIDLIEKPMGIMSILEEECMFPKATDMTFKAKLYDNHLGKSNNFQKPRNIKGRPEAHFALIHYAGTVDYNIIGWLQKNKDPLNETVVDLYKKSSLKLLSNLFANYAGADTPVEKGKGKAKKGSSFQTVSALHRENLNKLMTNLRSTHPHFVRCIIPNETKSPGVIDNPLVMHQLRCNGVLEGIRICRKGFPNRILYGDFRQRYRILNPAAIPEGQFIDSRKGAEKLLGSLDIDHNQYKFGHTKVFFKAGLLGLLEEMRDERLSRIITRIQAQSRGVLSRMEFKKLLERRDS

β-cardiac myosin [2] = target: T1, β-cardiac myosin; assay: Heat stress protection, storage and refolding of myosin; settings: for Competence to bind nucleotide (mantATP amplitude) preserved: 25 μM EMD 57033
Protocol: The fraction of myosin that is able to bind mantATP drops to below 32% when the temperature is raised to 49°C for more than 5 min. Incubation for 10 min at 51°C removes the myosin completely and irreversibly from the soluble fraction. […] Moreover, based on the amplitude of the rise in mantATP fluorescence, the competence of β-cardiac myosin to bind nucleotide is preserved to more than 91% after 5-min incubation at 49°C and to approximately 82% after 10-min incubation at 49°C (Figure 4B). […] This view is supported by experiments that monitor the recovery of basal activity over a 2 hr period (Figure 4C). To obtain more detailed information about the kinetics of the EMD 57033-mediated refolding reaction, we performed three sets of experiments recording the time and concentration dependence of EMD 57033-mediated increases in the fraction of myosin molecules that are able to undergo nucleotide induced conformational changes, hydrolyze ATP, and produce movement in the in vitro motility assay.
Changes in intrinsic protein fluorescence are tightly linked to ATP binding and ATP-induced conformational changes in the myosin motor domain ([Batra and Manstein, 1999]). […] The dependence of the kobs values on the incubation time was best fit by a hyperbola (Figure 4E). […] The slope defines a value of 0.02 × 10^-3 μM^−1 s^−1 for the second order rate constant for the EMD 57033-mediated refolding reaction (Figure 4H).
Target sequence in this assay (P79293 1-778 limits assumed): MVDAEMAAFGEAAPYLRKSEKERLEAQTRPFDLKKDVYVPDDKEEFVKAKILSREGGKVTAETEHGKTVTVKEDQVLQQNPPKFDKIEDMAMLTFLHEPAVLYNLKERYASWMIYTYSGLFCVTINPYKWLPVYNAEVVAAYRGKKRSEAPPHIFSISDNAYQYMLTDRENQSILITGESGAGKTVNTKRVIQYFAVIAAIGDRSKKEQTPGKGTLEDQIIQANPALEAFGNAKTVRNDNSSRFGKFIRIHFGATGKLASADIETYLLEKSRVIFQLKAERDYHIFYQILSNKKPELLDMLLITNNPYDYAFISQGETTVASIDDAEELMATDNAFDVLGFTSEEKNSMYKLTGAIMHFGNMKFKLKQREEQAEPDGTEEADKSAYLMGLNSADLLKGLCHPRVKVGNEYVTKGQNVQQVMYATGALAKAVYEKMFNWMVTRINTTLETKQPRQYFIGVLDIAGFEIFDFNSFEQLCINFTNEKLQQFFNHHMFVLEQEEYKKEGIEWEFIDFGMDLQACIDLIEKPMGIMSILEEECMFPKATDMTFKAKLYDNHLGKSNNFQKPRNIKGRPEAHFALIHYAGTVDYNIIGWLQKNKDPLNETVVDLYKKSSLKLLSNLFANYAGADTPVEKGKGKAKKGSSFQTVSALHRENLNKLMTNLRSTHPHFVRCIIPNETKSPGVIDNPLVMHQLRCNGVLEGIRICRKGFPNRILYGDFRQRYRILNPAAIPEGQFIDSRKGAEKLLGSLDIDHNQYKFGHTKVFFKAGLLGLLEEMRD

β-cardiac myosin [3] = target: T1, β-cardiac myosin; assay: Transient kinetics (stopped-flow) of the ATPase cycle; design: β-Cardiac myosin-2 (S1, full-length); from tissue; host or cells: porcine cardiac muscle
Description: To gain a better understanding of its mechanism of action, we examined the effect of EMD 57033-binding on the kinetic activity of the myosin motor. […] Fast mixing of excess ATP with β-cardiac myosin results in an increase of the protein’s intrinsic tryptophan fluorescence. The kinetic model predicts the double exponential ‘behavior’ of the observed transients to be associated with two discrete processes (Figure 3C). The fast process corresponds to the binding of ATP to the active site. The rate of the slow process saturates at ATP concentrations above 100 µM and can be attributed to the ATP hydrolysis step ([Deacon et al., 2012]). […] Phosphate release is the rate-limiting step of the β-cardiac myosin actin-activated ATPase cycle. It can be monitored by the fluorescence increase that is associated with the much faster binding of phosphate to the A197C mutant of Escherichia coli phosphate binding protein, labeled at Cys197 with the thiol reactive coumarin dye MDCC ([Brune et al., 1994]) (Figure 3F). […] The resulting values for k+4 indicate a 1.7-fold increase in the presence of the small compound.
Stopped-flow experiments were performed using PiStar (Applied Photophysics, Leatherhead, UK) and Hi-Tech SF61 (TgK Scientific Limited, Bradford on Avon, UK) spectrophotometers at 20°C as described previously ([Taft et al., 2008]). Mant-nucleotides (Jena Bioscience, Germany) were excited at 365 nm and detected after passing through a KV 389 nm cut-off filter. Tryptophane fluorescence was excited at 297 nm and detected using a WG 320 nm cut-off filter. Long-time experiments were carried out using a shutter to avoid photo-bleaching. […] Phosphate release was measured using MDCC-PBP (N-[2-(1-maleimidyl)ethyl]-7-(diethylamino)coumarin-3-carboxamide fused to phosphate binding protein; obtained from Life Technologies, Carlsbad, CA) as described previously ([Brune et al., 1994]). Coumarin fluorescence was excited at 430 nm and detected using 455 nm cut-off-filter.
Target sequence in this assay (P79293 whole entry, the tested form may be a part): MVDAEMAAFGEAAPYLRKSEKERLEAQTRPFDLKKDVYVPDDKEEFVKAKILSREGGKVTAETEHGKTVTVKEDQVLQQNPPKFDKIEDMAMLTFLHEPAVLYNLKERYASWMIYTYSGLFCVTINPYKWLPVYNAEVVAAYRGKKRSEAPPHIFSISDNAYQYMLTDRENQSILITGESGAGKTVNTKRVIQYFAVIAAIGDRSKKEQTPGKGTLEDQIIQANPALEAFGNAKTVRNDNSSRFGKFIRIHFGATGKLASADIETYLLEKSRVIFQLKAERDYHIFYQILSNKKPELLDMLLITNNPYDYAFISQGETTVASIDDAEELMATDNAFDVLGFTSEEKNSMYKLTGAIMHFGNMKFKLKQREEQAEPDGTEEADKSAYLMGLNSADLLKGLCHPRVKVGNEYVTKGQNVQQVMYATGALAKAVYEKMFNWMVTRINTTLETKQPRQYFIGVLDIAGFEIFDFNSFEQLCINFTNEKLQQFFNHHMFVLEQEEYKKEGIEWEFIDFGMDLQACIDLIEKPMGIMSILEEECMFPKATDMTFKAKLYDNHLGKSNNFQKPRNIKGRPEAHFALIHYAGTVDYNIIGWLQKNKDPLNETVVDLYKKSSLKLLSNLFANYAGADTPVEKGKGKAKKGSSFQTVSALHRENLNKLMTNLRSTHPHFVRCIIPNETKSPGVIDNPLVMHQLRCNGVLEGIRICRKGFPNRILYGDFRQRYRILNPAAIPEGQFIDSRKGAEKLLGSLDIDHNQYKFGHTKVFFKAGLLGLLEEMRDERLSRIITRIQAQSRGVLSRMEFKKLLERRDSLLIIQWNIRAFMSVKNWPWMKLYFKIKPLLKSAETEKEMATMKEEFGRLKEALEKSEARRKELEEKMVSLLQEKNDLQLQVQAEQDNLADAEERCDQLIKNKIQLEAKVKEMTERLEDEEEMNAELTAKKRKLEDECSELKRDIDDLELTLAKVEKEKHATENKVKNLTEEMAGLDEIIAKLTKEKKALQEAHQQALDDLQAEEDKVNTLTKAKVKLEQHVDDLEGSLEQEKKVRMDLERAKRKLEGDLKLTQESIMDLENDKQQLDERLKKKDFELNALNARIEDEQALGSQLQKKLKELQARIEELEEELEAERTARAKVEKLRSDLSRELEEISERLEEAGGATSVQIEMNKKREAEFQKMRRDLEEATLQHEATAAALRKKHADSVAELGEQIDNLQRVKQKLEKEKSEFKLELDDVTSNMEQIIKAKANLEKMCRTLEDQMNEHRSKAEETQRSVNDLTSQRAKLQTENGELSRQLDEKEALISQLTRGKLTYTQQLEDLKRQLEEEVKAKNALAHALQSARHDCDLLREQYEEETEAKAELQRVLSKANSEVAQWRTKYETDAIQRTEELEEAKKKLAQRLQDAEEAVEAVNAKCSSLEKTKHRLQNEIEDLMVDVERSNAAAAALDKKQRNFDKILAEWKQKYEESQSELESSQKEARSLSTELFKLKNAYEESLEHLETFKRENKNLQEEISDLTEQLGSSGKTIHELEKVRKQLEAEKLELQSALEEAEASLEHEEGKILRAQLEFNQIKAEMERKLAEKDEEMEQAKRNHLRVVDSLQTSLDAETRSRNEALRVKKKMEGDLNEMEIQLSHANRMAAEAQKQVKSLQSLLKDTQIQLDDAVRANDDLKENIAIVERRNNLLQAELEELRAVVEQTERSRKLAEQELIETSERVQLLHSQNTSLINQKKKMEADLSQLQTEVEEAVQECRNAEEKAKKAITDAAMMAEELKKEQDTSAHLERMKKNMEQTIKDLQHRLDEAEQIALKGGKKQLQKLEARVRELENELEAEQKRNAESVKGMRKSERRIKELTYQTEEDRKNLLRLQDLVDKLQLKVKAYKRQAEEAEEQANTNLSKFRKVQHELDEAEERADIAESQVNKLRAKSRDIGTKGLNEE

COc1ccc(C(=O)N2CCCc3cc(C4=NNC(=O)SC4C)ccc32)cc1OC (centres unmarked) [EMD 57033]
Normalized maximal ATPase activation (basal) (β-cardiac myosin [1]): 1.5
Effect on KM,ATP (Lineweaver–Burk plot) (β-cardiac myosin [1]; 25 µM EMD 57033): remains unaffected
kcat increase (Lineweaver–Burk plot) (β-cardiac myosin [1]; 25 µM EMD 57033): 1.5 fold
kcat ∼Change (−fold), increase (β-cardiac myosin [1]; 25 µM EMD 57033 vs control): 1.6 fold
kcat/KM(Actin) (initial slope) ∼Change (−fold) (β-cardiac myosin [1]; 25 µM EMD 57033 vs control): ~15.8 fold
Normalized maximal ATPase activation (with 30 µM actin) (β-cardiac myosin [1]; 30 µM actin): 2.5
kcat (actin-activated ATPase) (β-cardiac myosin [1]; in presence of 25 µM EMD 57033): 0.19 ± 0.02 s⁻¹
kcat/KM(Actin), calculated ratio of both values (β-cardiac myosin [1]; in presence of 25 µM EMD 57033): 0.0528 µM^v1 s^−1
Basal ATP turnover relative to that expected for 100% active protein (β-cardiac myosin [1]; saturating EMD 57033): 1.5 fold
AC50 (β-cardiac myosin [1]; β-Cardiac myosin-2 (S1, full-length), read-out: AC50 ATPase (half-maximal activation)): 7 µM
ATPase activity in excess of the value expected for a 100% active population of myosin heads (β-cardiac myosin [1]; β-cardiac myosin and Dd myosin-2 preparations together): 30–50%
Shelf life of protein-functionalized surfaces (β-cardiac myosin [2]): from a couple of hours to several months
Shelf life of myosin at 4°C (β-cardiac myosin [2]; 25 µM EMD 57033): extends the shelf life
Competence to bind nucleotide (mantATP amplitude) preserved (β-cardiac myosin [2]; 5-min incubation at 49°C): more than 91%
Competence to bind nucleotide (mantATP amplitude) preserved (β-cardiac myosin [2]; 10-min incubation at 49°C): approximately 82%
Recovery of ability to bind mantATP after heat inactivation (β-cardiac myosin [2]; 10 min at 49°C, then 25 µM EMD 57033): gradually recovered
First order dissociation rate constant for EMD 57033 (y-intercept) (β-cardiac myosin [2]; heat-treated β-cardiac myosin): 0.00023 s⁻¹
Second order rate constant for the EMD 57033-mediated refolding reaction (krescue) (β-cardiac myosin [2]; heat-treated β-cardiac myosin, 10–100 μM EMD 57033): 20 M⁻¹ s⁻¹
Recovery of enzymatic activity of fully denatured myosin aggregates (β-cardiac myosin [2]; incubation for 6 hr on ice or at 20°C): no detectable recovery of enzymatic activity
Precipitation / solubility of myosin under heat stress (β-cardiac myosin [2]; preincubation with 25 μM EMD 57033, 10-min incubation): remained in the supernatant over the entire temperature range tested; also recorded: prevents precipitation
Effect on ADP-release step (k−D, k−AD) (β-cardiac myosin [3]): appears unaffected
k+4 (phosphate release) (β-cardiac myosin [3]; 25 µM EMD 57033, F-Actin 25 µM and 25 µM ATP, MDCC-PBP): 0.15 ± 0.01 s⁻¹
k+2 ∼Change (−fold), increase (β-cardiac myosin [3]; 25 µM EMD 57033 vs control): 3.8 fold
k+4 ∼Change (−fold), increase (β-cardiac myosin [3]; EMD 57033 vs control): 1.7 fold
Net change in the rate of ATP turnover, single-turnover mantATP experiment (β-cardiac myosin [3]; actin-activated β-cardiac myosin, 25 µM EMD 57033): approximately twofold net increase
k+2 (conformational change after ATP binding) (β-cardiac myosin [3]; in presence of 25 µM EMD 57033): 174 ± 7 s⁻¹
k+3 + k−3 (rate of ATP hydrolysis) (β-cardiac myosin [3]; in presence of 25 µM EMD 57033): 24.5 ± 1.9 s⁻¹
k−AD (ADP release, with actin) (β-cardiac myosin [3]; in presence of 25 µM EMD 57033): 26.9 ± 4 s⁻¹
k−D (ADP release) (β-cardiac myosin [3]; in presence of 25 µM EMD 57033): 0.16 ± 0.04 s⁻¹
